Test results as given in patent US20240285571A1, “METHODS OF TREATING BONE INFECTIONS” (MICROBION CORPORATION, priority 2020, published 2024).
Read-outs that look alike come from different tables or passages of the source.

What was measured:
C. parapsilosis [1] = conditions: C. parapsilosis MMX 2323 (ATCC 22019), cited from earlier work
C. albicans = assay: Broth microdilution MIC, yeast (Example 5); assay type: cell-based; conditions: Sensitive
Description: (§1) Test and Comparator Agents: The test agents were stored at room temperature until assayed. All test agents were suspended and diluted in 100% dimethylsulfoxide (DMSO), and were ultimately tested at a final concentration of 0.06-64 μg/mL. The stock solutions were allowed to stand for at least 1 hr prior to use to auto-sterilize.
(§2) The susceptibility of yeast isolates was determined by broth microdilution in RPMI medium (HyClone Laboratories, Logan, UT; Lot No. AZC184041B) buffered with 0.165 M MOPS (Calbiochem, Billerica, MA; Lot No. 2694962). The pH of the medium was adjusted to 7.0 with 1 N NaOH, sterile filtered using a 0.2 μm PES filter, and stored at 4° C. until used.
(§3) Broth Microdilution MC Testing (Aerobic Bacteria and Yeast): The broth microdilution assay method employed for the susceptibility testing of aerobic bacteria (excluding N. gonorrhoeae which was evaluated by agar dilution) and yeast essentially followed the procedures described by CLSI (3, 4, 7, 8) and employed automated liquid handlers to conduct serial dilutions and liquid transfers. Automated liquid handlers included the Multidrop 384 (Labsystems, Helsinki, Finland) and Biomek 2000 (Beckman Coulter, Fullerton CA). The wells in columns 2-12 in standard 96-well microdilution plates (Costar 3795) were filled with 150 μl of the correct diluent. These would become the ‘mother plates’ from which ‘daughter’ or test plates would be prepared. The drugs (300 μL at 40× the desired top concentration in the test plates) were dispensed into the appropriate well in Column 1 of the mother plates. The Biomek 2000 was used to make serial two-fold dilutions through Column 11 in the “mother plate”. The wells of Column 12 contained no drug and ultimately served as the organism growth control wells.
(§4) The daughter plates were loaded with 185 μL per well of the appropriate test media using the Multidrop 384. The daughter plates were prepared using the Biomek FX which transferred 5 μL of drug solution from each well of a mother plate to the corresponding well of the correct daughter plate in a single step.
(§5) A standardized inoculum of each organism was prepared per CLSI methods (3, 7). Isolated colonies of each test isolate were picked from the primary plate and a suspension was prepared to equal a 0.5 McFarland turbidity standard. Standardized suspensions were then diluted […] (1:100 for yeast, 1:20 for bacteria). After dilution, the inoculum suspensions were then transferred to compartments of sterile reservoirs divided by length (Beckman Coulter), and the Biomek 2000 was used to inoculate all plates. Daughter plates were placed on the Biomek 2000 in reverse orientation so that plates were inoculated from low to high drug concentration.
(§6) The Biomek 2000 delivered 10 μL of standardized inoculum into each well of the appropriate daughter plate for an additional 1:20 dilution. […] The final concentration of DMSO (if used as a solvent) in the test well was 2.5%.
(§7) Plates were stacked 4 high, covered with a lid on the top plate, placed into plastic bags, and incubated at 35° C. for approximately 24-48 hr for all yeast isolates and 16-24 hr for aerobic bacteria. Plates were viewed from the bottom using a plate viewer. […] MIC endpoints for the test agents and control compounds were read per CLSI criteria (3, 7).

C. parapsilosis [2] = assay: Broth microdilution MIC, yeast (Example 5); assay type: cell-based
Description: as §1, §2, §3, §4, §5, §6, §7

C. glabrata = assay: Broth microdilution MIC, yeast (Example 5); assay type: cell-based; conditions: FLUR
Description: as §1, §2, §3, §4, §5, §6, §7

C. tropicalis = assay: Broth microdilution MIC, yeast (Example 5); assay type: cell-based; conditions: FLUR
Description: as §1, §2, §3, §4, §5, §6, §7

C. difficile [3] = conditions: C. difficile MMX 4381 (ATCC 700057); cited from earlier work
B. fragilis = assay: Agar dilution MIC, anaerobes (Example 5); assay type: cell-based; conditions: Bacteroides fragilis, ATCC25285; B. fragilis MMX 123 (ATCC 25285); QC; read-out: MIC
C. difficile [4] = assay: Agar dilution MIC, anaerobes (Example 5); assay type: cell-based, Clostridium difficile; conditions: Clostridioides difficile, read-out: MIC
E. cloacae = assay: Broth microdilution MIC (Example 5); assay type: cell-based, Enterobacter cloacae; conditions: E. cloacae MMX 5981 (ATCC BAA-2468); NDM-1
Description: (§8) Test and Comparator Agents: The test agents were stored at room temperature until assayed. […] The stock solutions were allowed to stand for at least 1 hr prior to use to auto-sterilize.
(§9) TestMedia: Test media were prepared and stored in accordance with guidelines from CLSI (4, 6, 7).
Broth Microdilution MC Testing (Aerobic Bacteria and Yeast): The broth microdilution assay method employed for the susceptibility testing of aerobic bacteria (excluding N. gonorrhoeae which was evaluated by agar dilution) and yeast essentially followed the procedures described by CLSI (3, 4, 7, 8) and employed automated liquid handlers to conduct serial dilutions and liquid transfers. […] These would become the ‘mother plates’ from which ‘daughter’ or test plates would be prepared. The drugs (300 μL at 40× the desired top concentration in the test plates) were dispensed into the appropriate well in Column 1 of the mother plates. The Biomek 2000 was used to make serial two-fold dilutions through Column 11 in the “mother plate”. […]
Plates were stacked 4 high, covered with a lid on the top plate, placed into plastic bags, and incubated at 35° C. for approximately 24-48 hr for all yeast isolates and 16-24 hr for aerobic bacteria. […] MIC endpoints for the test agents and control compounds were read per CLSI criteria (3, 7).

P. aeruginosa [5] = assay: Broth microdilution MIC (Example 5); assay type: cell-based, Pseudomonas aeruginosa
Description: as §8, §9
(§10) Broth Microdilution MC Testing (Aerobic Bacteria and Yeast): The broth microdilution assay method employed for the susceptibility testing of aerobic bacteria (excluding N. gonorrhoeae which was evaluated by agar dilution) and yeast essentially followed the procedures described by CLSI (3, 4, 7, 8) and employed automated liquid handlers to conduct serial dilutions and liquid transfers. […] These would become the ‘mother plates’ from which ‘daughter’ or test plates would be prepared. The drugs (300 μL at 40× the desired top concentration in the test plates) were dispensed into the appropriate well in Column 1 of the mother plates. The Biomek 2000 was used to make serial two-fold dilutions through Column 11 in the “mother plate”. The wells of Column 12 contained no drug and ultimately served as the organism growth control wells.
(§11) The daughter plates were prepared using the Biomek FX which transferred 5 μL of drug solution from each well of a mother plate to the corresponding well of the correct daughter plate in a single step.
as §5
(§12) The Biomek 2000 delivered 10 μL of standardized inoculum into each well of the appropriate daughter plate for an additional 1:20 dilution.
as §7

P. aeruginosa [6] = conditions: P. aeruginosa MMX 103 (ATCC 27853); cited from earlier work
E. faecalis = assay: Broth microdilution MIC (Example 5); assay type: cell-based, Enterococcus faecalis; conditions: VRE
Description: as §8, §9, §10, §11, §5, §12, §7

S. aureus = assay: Broth microdilution MIC (Example 5); assay type: cell-based, Staphylococcus aureus
Description: as §8, §9, §10, §11, §5, §12, §7

E. coli [7] = conditions: E. coli MMX 102 (ATCC 25922); cited from earlier work
E. faecium = assay: Broth microdilution MIC (Example 5); assay type: cell-based; conditions: VRE vanA
Summary of the method: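 MICs were determined by CLSI broth microdilution with serial two-fold drug dilutions in CLSI-prepared media. Inocula were set to 0.5 McFarland, diluted, and added to the plates. Bacteria were incubated at 35° C. for 16-24 hr, and endpoints were read visually per CLSI criteria.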

A. baumannii = assay: Broth microdilution MIC (Example 5); assay type: cell-based, Acinetobacter baumannii
Description: as §8, §9, §10, §11, §5, §12, §7

K. pneumoniae = assay: Broth microdilution MIC (Example 5); assay type: cell-based, Klebsiella pneumoniae
Description: as §8, §9, §10, §11, §5, §12, §7

E. coli [8] = assay: Broth microdilution MIC (Example 5); assay type: cell-based, Escherichia coli
Description: as §8, §9, §10, §11, §5, §12, §7

C[C@@H]1[C@H](O)[C@@H](C)/C=C/C=C/C=C/C=C/C=C/C=C/C=C/[C@H](O[C@@H]2O[C@H](C)[C@@H](O)[C@H](N)[C@@H]2O)C[C@@H]2O[C@](O)(C[C@@H](O)C[C@@H](O)[C@H](O)CC[C@@H](O)C[C@@H](O)CC(=O)O[C@H]1C)C[C@H](O)[C@H]2C(=O)O [Amphotericin B, reference compound]
0.5 to 4 µg/mL: CLSI QC range of MIC (C. parapsilosis [1]; 48 hr)
1 µg/mL: MIC (C. parapsilosis [2]; C. parapsilosis MMX 2323 (ATCC 22019), QC, 48 hr) | MIC (C. parapsilosis [2]; C. parapsilosis MMX 7370, FLUR, 48 hr) | MIC (C. glabrata; C. glabrata MMX 7086, 48 hr) | MIC (C. glabrata; C. glabrata MMX 7318, 48 hr) | MIC (C. tropicalis; C. tropicalis MMX 7247, 48 hr) | MIC (C. tropicalis; C. tropicalis MMX 7248, 48 hr)
0.25 µg/mL: MIC (C. albicans; C. albicans MMX 7055, 24 hr)
0.25 to 2 µg/mL: CLSI QC range of MIC (C. parapsilosis [1]; 24 hr)
0.5, 0.5 μg/mL: MIC (C. albicans; C. albicans MMX 7039, 24 hr) | MIC (C. albicans; C. albicans MMX 7039, 48 hr) | MIC (C. parapsilosis [2]; C. parapsilosis MMX 7555, FLUR, 24 hr) | MIC (C. parapsilosis [2]; C. parapsilosis MMX 7555, FLUR, 48 hr) | MIC (C. tropicalis; C. tropicalis MMX 7360, 24 hr) | MIC (C. tropicalis; C. tropicalis MMX 7360, 48 hr)
0.5 µg/mL: MIC (C. albicans; C. albicans MMX 7055, 48 hr) | MIC (C. parapsilosis [2]; C. parapsilosis MMX 2323 (ATCC 22019), QC, 24 hr) | MIC (C. parapsilosis [2]; C. parapsilosis MMX 7370, FLUR, 24 hr) | MIC (C. glabrata; C. glabrata MMX 7086, 24 hr) | MIC (C. glabrata; C. glabrata MMX 7318, 24 hr) | MIC (C. tropicalis; C. tropicalis MMX 7247, 24 hr) | MIC (C. tropicalis; C. tropicalis MMX 7248, 24 hr)

CCc1c(Cl)c(O)c(Cl)c(O)c1C(=O)O[C@H]1[C@H](O)[C@H](OC)[C@H](OC/C2=C\C=C\C[C@H](O)/C(C)=C/[C@H](CC)[C@@H](O[C@@H]3OC(C)(C)[C@@H](OC(=O)C(C)C)[C@H](O)[C@@H]3O)/C(C)=C/C(C)=C/C[C@@H]([C@@H](C)O)OC2=O)O[C@@H]1C [Fidaxomicin]
(0.06-0.25) μg/mL: CLSI QC range of MIC (C. difficile [3])
> 64 µg/mL: MIC (B. fragilis)
0.25 µg/mL: MIC (C. difficile [4]; ATCC700057, C. difficile MMX 4381 (ATCC 700057), QC, CCI)
4 µg/mL: MIC (C. difficile [4]; NCTC13336, C. difficile MMX 5680 (NCTC 13336), ribotype 027, CCI METR)
0.5 µg/mL: MIC (C. difficile [4]; C. difficile MMX 8272, ribotype 255, CCI) | MIC (C. difficile [4]; C. difficile MMX 8279, ribotype 005, CCR) | MIC (C. difficile [4]; C. difficile MMX 8281, ribotype 010, CCR) | MIC (C. difficile [4]; NCTC13307, C. difficile MMX 5681 (NCTC 13307), ribotype 012, CCR)

Gentamicin [reference compound]
(0.25-1) μg/mL: CLSI QC range of MIC (E. coli [7])
(0.5-2) μg/mL: CLSI QC range of MIC (P. aeruginosa [6])
>64 µg/mL: MIC (E. cloacae) | MIC (P. aeruginosa [5]; P. aeruginosa MMX 4654, IMP-7) | MIC (E. faecalis; E. faecalis MMX 8960) | MIC (E. faecalis; E. faecalis MMX 8962) | MIC (E. faecium; E. faecium MMX 485) | MIC (E. faecium; E. faecium MMX 752) | MIC (A. baumannii; A. baumannii MMX 2592, MDR) | MIC (A. baumannii; A. baumannii MMX 2593, MDR) | MIC (K. pneumoniae; K. pneumoniae MMX 5979, NDM-1) | MIC (E. coli [8]; E. coli MMX 5980 (ATCC BAA-2469), NDM-1) | MIC (E. coli [8]; E. coli MMX 8425, ESBL, LevR CAZR GmR)
0.25 µg/mL: MIC (S. aureus; S. aureus MMX 5373, MRSA) | MIC (S. aureus; S. aureus MMX 6311, MRSA) | MIC (S. aureus; S. aureus MMX 9204, MRSA) | MIC (S. aureus; S. aureus MMX 9205, MRSA) | MIC (K. pneumoniae; K. pneumoniae MMX 4622, KPC-2) | MIC (K. pneumoniae; K. pneumoniae MMX 4684, ESBL) | MIC (E. coli [8]; E. coli MMX 8424, ESBL, CAZR)
64 µg/mL: MIC (K. pneumoniae; K. pneumoniae MMX 4623, KPC-2) | MIC (E. coli [8]; E. coli MMX 8423, ESBL, LevR CAZR GmR)
0.12 µg/mL: MIC (S. aureus; S. aureus MMX 101 (ATCC 29213), QC, MSSA) | MIC (S. aureus; S. aureus MMX 9203, MRSA) | MIC (A. baumannii; A. baumannii MMX 3373, Sensitive)
0.5 µg/mL: MIC (A. baumannii; A. baumannii MMX 3372, MDR)
4 µg/mL: MIC (P. aeruginosa [5]; P. aeruginosa MMX 3991, MDR) | MIC (P. aeruginosa [5]; P. aeruginosa MMX 4697, VIM-2)
1 µg/mL: MIC (P. aeruginosa [5]; P. aeruginosa MMX 103 (ATCC 27853), QC) | MIC (K. pneumoniae; K. pneumoniae MMX 4653, KPC-3) | MIC (K. pneumoniae; K. pneumoniae MMX 4683, KPC-2) | MIC (K. pneumoniae; K. pneumoniae MMX 4685, ESBL) | MIC (E. coli [8]; E. coli MMX 102 (ATCC 25922), QC)
8 µg/mL: MIC (P. aeruginosa [5]; P. aeruginosa MMX 1381, MDR) | MIC (P. aeruginosa [5]; P. aeruginosa MMX 2562, MDR) | MIC (E. faecalis; E. faecalis MMX 8961) | MIC (A. baumannii; A. baumannii MMX 4651 (NCTC 13304), MDR, OXA-27) | MIC (K. pneumoniae; K. pneumoniae MMX 4694, KPC-3)
